These results are taken from paper PMC9608620, “Synthesis and Identification of New N,N-Disubstituted Thiourea, and Thiazolidinone Scaffolds Based on Quinolone Moiety as Urease Inhibitor” (Molecules, 2022).

In brackets after ≈: the same amount, converted by molar mass. Like-named read-outs stand apart in the source and are kept apart here.

Series [1] has as its target T1, urease (Jack bean urease) (Canavalia ensiformis, UniProt P07374). Description: biochemical. The series is classed as biochemical. Here is the method:
In vitro screening and inhibitory studies on urease (Jack bean urease) were determined using the colored Berthelot phenols method, which measures the liberation of ammonia from the reaction. Briefly, the assay mixture containing 1 unit of the enzyme was added to 650 µL of buffer solution (50 mmol phosphate buffer Ph 6.7, 400 mmol sodium salicylate, 10 mmol sodium nitroprusside, and 2 mmol EDTA/L) and mixed with 10 µL of different concentration 0.1–100 Mm of the tested compounds in DMF as a solvent. […] After 15 min incubation at room temperature, 10 µL of 50 mg/L urea solution was added. The mixture was incubated for 0.5 h in a water bath at 37 °C to allow the hydrolysis process.
After complete urea hydrolysis and ammonia liberation, the reaction was stopped by adding 200 µL of the hypochlorite reagent (150 mmol/L sodium hydroxide, 140 mm/L sodium hypochlorite). The liberated ammonia was allowed to complex with the hypochlorite and salicylate for 25 min at 30 °C. The absorbance was measured at 578 nm using a UV/VIS Spectrophotometer (Optizen POP, 5U4608, Daejeon, Korea), and experiments were performed in triplicate in a final volume of 1 mL. […] The percentage inhibition was calculated as the difference of absorbance values with and without the test compounds. The concentration that provokes an inhibition halfway between the minimum and maximum response of each compound (relative IC50) was determined by monitoring the inhibition effect of various concentrations of compounds in the assay.

In series [2] the test system is Proteus mirabilis (P. mirabilis) strain. Description: Antibacterial screening, cup-plate diffusion method. The series is classed as cell-based. Particulars: urease-positive clinical isolate from urine, number in brackets, read-out: MIC P. mirabilis (given in brackets). The procedure: The Proteus mirabilis (P. mirabilis) strain was isolated from the urine of patients suffering from urinary tract infections. […] The test was performed using the cup-plate diffusion method

Series [3] concerns the target T1, urease (Jack bean urease). The note with it: read-out: IC50 (µM) Urease; lead compound of the design rationale; cited from earlier work.
[4] abbreviates: Jack bean urease, triplicate, relative IC50, read-out: IC50 (µM) Urease.

T1 sequence (P07374 whole entry, looked up): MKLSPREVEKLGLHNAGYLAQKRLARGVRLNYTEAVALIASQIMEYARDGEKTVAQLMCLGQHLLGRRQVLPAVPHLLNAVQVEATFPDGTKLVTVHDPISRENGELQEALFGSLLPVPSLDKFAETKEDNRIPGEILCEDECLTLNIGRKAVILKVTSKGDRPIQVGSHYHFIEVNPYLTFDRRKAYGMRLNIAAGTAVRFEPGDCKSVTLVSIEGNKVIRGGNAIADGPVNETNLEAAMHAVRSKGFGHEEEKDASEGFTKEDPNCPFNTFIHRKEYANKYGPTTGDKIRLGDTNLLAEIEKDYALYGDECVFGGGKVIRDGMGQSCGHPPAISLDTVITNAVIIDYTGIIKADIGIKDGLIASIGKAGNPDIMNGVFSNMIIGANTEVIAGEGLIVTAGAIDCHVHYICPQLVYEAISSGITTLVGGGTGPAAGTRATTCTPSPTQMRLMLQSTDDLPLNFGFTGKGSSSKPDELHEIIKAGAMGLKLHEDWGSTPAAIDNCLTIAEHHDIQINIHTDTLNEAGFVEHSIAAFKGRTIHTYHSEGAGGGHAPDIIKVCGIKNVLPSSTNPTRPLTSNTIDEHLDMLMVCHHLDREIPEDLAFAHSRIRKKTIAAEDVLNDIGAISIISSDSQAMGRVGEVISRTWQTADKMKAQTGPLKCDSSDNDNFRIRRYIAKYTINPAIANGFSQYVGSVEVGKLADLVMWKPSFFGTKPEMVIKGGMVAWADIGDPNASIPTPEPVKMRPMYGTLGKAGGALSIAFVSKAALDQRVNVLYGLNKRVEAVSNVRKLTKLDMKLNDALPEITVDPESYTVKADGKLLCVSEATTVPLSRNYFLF

`CC(=O)NO` [Acetohydroxamic acid, reference compound]: the IC50 in series [1] (setting [4]) came out at 21 ± 0.94 µM.

In the case of `C=CCNC(=S)NNC(=O)COc1cc(=O)n(C)c2ccccc12` [Compound 5a, N-Allyl-2-(2-((1-methyl-2-oxo-1,2-dihydroquinolin-4-yl)oxy)acetyl)hydrazinecarbo-thioamide], the melting point is 177 to 179 °C. This molecule returned an IC50 in series [1] of 2.48 ± 0.18 µM. In addition, in series [2], the MIC was found to be 100 µg/mL (≈ 289 µM).

The molecule `Cn1c(=O)cc(OCC(=O)NNC(=S)NCc2ccccc2)c2ccccc21` [Compound 5b, N-Benzyl-2-(2-((1-methyl-2-oxo-1,2-dihydroquinolin-4-yl)oxy)acetyl)hydrazinecarbothioamide] had a melting point of 190 to 192 °C. Further, the IC50 in series [1] was 2.58 ± 0.1 µM. Further, the MIC in series [2] is 100 µg/mL (≈ 252 µM).

The molecule `Cn1c(=O)cc(OCC(=O)NNC(=S)Nc2ccccc2)c2ccccc21` [Compound 5c, 2-(2-((1-Methyl-2-oxo-1,2-dihydroquinolin-4-yl)oxy)acetyl)-N-phenylhydrazinecarbothioamide] displayed a melting point of 161 to 163 °C. Also, the IC50 in series [1] is 1.83 ± 0.79 µM. Also, in series [1] (relative to the reference inhibitors), the “fold more potent than thiourea and acetohydroxamic acid (urease inhibition)” value is reported as “approximately 12 fold”. Further, in series [2], the MIC turned out to be 100 µg/mL (≈ 261 µM).

Molecule `C=CCNC(=S)NNC(=O)COc1cc(=O)[nH]c2ccc(C)cc12` [Compound 5d, N-Allyl-2-(2-((6-methyl-2-oxo-1,2-dihydroquinolin-4-yl)oxy)acetyl)hydrazine-1-carbothioamide] had a melting point of 174 to 176 °C. Half-maximal inhibition in series [1] (IC50) required 5.29 ± 0.36 µM. In addition, the MIC in series [2] stood at 100 µg/mL (≈ 289 µM).

Molecule `Cc1ccc2[nH]c(=O)cc(OCC(=O)NNC(=S)NCc3ccccc3)c2c1` [Compound 5e, N-Benzyl-2-(2-((6-methyl-2-oxo-1,2-dihydroquinolin-4-yl)oxy)acetyl)hydrazinecarbothioamide] yielded a melting point of 183 to 185 °C. In addition, in series [1], half-maximal inhibition (IC50) was put at 5.6 ± 0.84 µM. The MIC in series [2] was found to be 100 µg/mL (≈ 252 µM).

In turn, `C=CCNC(=S)NNC(=O)COc1cc(=O)[nH]c2ccccc12` [Compound 5f, N-Allyl-2-(2-((2-oxo-1,2-dihydroquinolin-4-yl)oxy)acetyl)hydrazinecarbothioamide] came in with a melting point of 169 to 171 °C. The IC50 in series [1] stood at 9.45 ± 0.08 µM. In addition, the MIC in series [2] is 100 µg/mL (≈ 301 µM).

Molecule `O=C(COc1cc(=O)[nH]c2ccccc12)NNC(=S)NCc1ccccc1` [Compound 5g, N-Benzyl-2-(2-((2-oxo-1,2-dihydroquinolin-4-yl)oxy)acetyl)hydrazinecarbothioamide] displayed a melting point of 199 to 201 °C. The same molecule displayed an IC50 in series [1] of 11.2 ± 0.27 µM. Besides, the MIC in series [2] came out at 100 µg/mL (≈ 261 µM).

Regarding `C=CCN1C(=O)/C(=C\C(=O)OC)SC1=NNC(=O)COc1cc(=O)n(C)c2ccccc12` [Compound 7a, (2E)-Methyl 2-(3-allyl-2-(2-(2-((1-methyl-2-oxo-1,2-dihydroquinolin-4-yl)oxy)acetyl)-hydrazono)-4-oxothiazolidin-5-ylidene)acetate], the melting point was 233 to 235 °C. Also, the IC50 in series [1] was determined as 36.28 ± 0.1 µM. The MIC in series [2] turned out to be 200 µg/mL (≈ 438 µM).

The molecule `CCOC(=O)/C=C1/S/C(=N\NC(=O)COc2cc(=O)n(C)c3ccccc23)N(Cc2ccccc2)C1=O` [Compound 7b] gave a melting point of 243 to 245 °C. In series [1], this molecule had an IC50 of 24 ± 0.88 µM. Moreover, the MIC in series [2] came to 200 µg/mL (≈ 384 µM).

In the case of `COC(=O)/C=C1/SC(=NNC(=O)COc2cc(=O)n(C)c3ccccc23)N(c2ccccc2)C1=O` [Compound 7c, (2E)-Methyl 2-(2-(2-(2-((1-methyl-2-oxo-1,2-dihydroquinolin-4-yl)oxy)acetyl)-hydrazono)-4-oxo-3-phenylthiazolidin-5-ylidene)acetate], the melting point is 229 to 231 °C. Besides, in series [1], the IC50 was found to be 18.8 ± 1.72 µM. For the same molecule, the MIC in series [2] is 200 µg/mL (≈ 406 µM).

Turning to `CCOC(=O)/C=C1/SC(=NNC(=O)COc2cc(=O)n(C)c3ccccc23)N(c2ccccc2)C1=O` [Compound 7d, (2E)-Ethyl 2-(2-(2-(2-((1-methyl-2-oxo-1,2-dihydroquinolin-4-yl)oxy)acetyl)-hydrazono)-4-oxo-3-phenylthiazolidin-5-ylidene)acetate], the melting point lay within 223 to 225 °C. Further, in series [1], inhibition was half-maximal at 26.8 ± 1.11 µM (IC50). In addition, the MIC in series [2] is 200 µg/mL (≈ 395 µM).

On to `C=CCN1C(=O)/C(=C\C(=O)OCC)S/C1=N\NC(=O)COc1cc(=O)[nH]c2ccc(C)cc12` [Compound 7e, (E)-Ethyl 2-((Z)-3-allyl-2-(2-(2-((6-methyl-2-oxo-1,2-dihydroquinolin-4-yl)oxy)acetyl)-hydrazono)-4-oxothiazolidin-5-ylidene)acetate], for which the melting point lay in the range of 239 to 241 °C. In series [1], this molecule returned an IC50 of 29.8 ± 1.31 µM. For the same molecule, the MIC in series [2] was determined as 200 µg/mL (≈ 425 µM).

For the molecule `C=CCN1C(=O)/C(=C\C(=O)OC)S/C1=N\NC(=O)COc1cc(=O)[nH]c2ccc(C)cc12` [Compound 7f, (E)-Methyl 2-((Z)-3-allyl-2-(2-(2-((6-methyl-2-oxo-1,2-dihydroquinolin-4-yl)oxy)-acetyl)hydrazono)-4-oxothiazolidin-5-ylidene)acetate], the melting point was 232 to 233 °C. The molecule also registered an IC50 in series [1] of 31.58 ± 0.15 µM. For the same molecule, the MIC in series [2] amounted to 200 µg/mL (≈ 438 µM).

`COC(=O)/C=C1/SC(=NNC(=O)COc2cc(=O)[nH]c3ccc(C)cc23)N(Cc2ccccc2)C1=O` [Compound 7g, (2E)-Methyl 2-(3-benzyl-2-(2-(2-((6-methyl-2-oxo-1,2-dihydroquinolin-4-yl)oxy)acetyl)-hydrazono)-4-oxothiazolidin-5-ylidene)acetate] had a melting point of 241 to 243 °C. The IC50 in series [1] worked out at 45.43 ± 0.19 µM. In addition, in series [2], the MIC worked out at 200 µg/mL (≈ 395 µM).

Take `CCOC(=O)/C=C1/S/C(=N\NC(=O)COc2cc(=O)[nH]c3ccc(C)cc23)N(Cc2ccccc2)C1=O` [Compound 7h, (E)-Ethyl 2-((Z)-3-benzyl-2-(2-(2-((6-methyl-2-oxo-1,2-dihydroquinolin-4-yl)oxy)acetyl)-hydrazono)-4-oxothiazolidin-5-ylidene)acetate]: the melting point is 233 to 235 °C. The IC50 in series [1] was determined as 31.3 ± 0.36 µM. Further, the MIC in series [2] was determined as 200 µg/mL (≈ 384 µM).

Consider `C=CCN1C(=O)/C(=C\C(=O)OCC)S/C1=N\NC(=O)COc1cc(=O)[nH]c2ccccc12` [Compound 7i, (2E)-Ethyl 2-(3-allyl-4-oxo-2-(2-(2-((2-oxo-1,2-dihydroquinolin-4-yl)oxy)acetyl)hydra-zono)thiazolidin-5-ylidene)acetate], for which 42.8 ± 1.51 µM corresponded to half-maximal inhibition in series [1] (IC50). Besides, in series [2], the MIC worked out at 200 µg/mL (≈ 438 µM).

The molecule `C=CCN1C(=O)/C(=C\C(=O)OC)SC1=NNC(=O)COc1cc(=O)[nH]c2ccccc12` [Compound 7j, (2E)-Methyl 2-(3-allyl-4-oxo-2-(2-(2-((2-oxo-1,2-dihydroquinolin-4-yl)oxy)acetyl)-hydrazono)thiazolidin-5-ylidene)acetate] showed a melting point of 244 to 246 °C. For the same molecule, it took 51.4 ± 0.91 µM to reach half-maximal inhibition in series [1] (IC50). Further, the MIC in series [2] amounted to 200 µg/mL (≈ 452 µM).

Consider `COC(=O)/C=C1/SC(=NNC(=O)COc2cc(=O)[nH]c3ccccc23)N(Cc2ccccc2)C1=O` [Compound 7k, (2E)-Methyl 2-(3-benzyl-4-oxo-2-(2-(2-((2-oxo-1,2-dihydroquinolin-4-yl)oxy)acetyl)-hydrazono)thiazolidin-5-ylidene)acetate], for which the melting point lay in the range of 251 to 253 °C. The molecule also had an IC50 in series [1] of 49.45 ± 0.09 µM. Moreover, the MIC in series [2] worked out at 200 µg/mL (≈ 406 µM).

`CCOC(=O)/C=C1/S/C(=N\NC(=O)COc2cc(=O)[nH]c3ccccc23)N(Cc2ccccc2)C1=O` [Compound 7l, (E)-Ethyl 2-((Z)-3-benzyl-4-oxo-2-(2-(2-((2-oxo-1,2-dihydroquinolin-4-yl)oxy)acetyl)-hydrazono)thiazolidin-5-ylidene)acetate] returned a melting point of 249 to 251 °C. In series [1], the IC50 worked out at 37.21 ± 0.28 µM. Besides, in series [2], the MIC is 200 µg/mL (≈ 395 µM).

For the molecule `NC(N)=S` [Thiourea], in series [1] (setting [4]), the IC50 turned out to be 22.8 ± 1.31 µM.

For the molecule `CCNC(=S)NNC(=O)Cn1c(Cc2ccc(F)cc2)nc2ccccc2c1=O` [lead I, N-ethyl-2-(2-(2-(4-fluorobenzyl)-4-oxoquinazolin-3(4H)-yl)acetyl)hydrazinecarbothioamide], in series [3], the IC50 was 6.02 ± 0.27 µM.
